# Experimental data from PubChem BioAssay AID1963850 (Molecular Pharmacology Branch, DTP, NCI, 2024).
# pIC50: −log10 of the molar value.
# Tested on: 192522-019-R-J2-PDC complex tumor spheroid viability
# Assay: Anticancer human tumor 192522-019-R-J2-PDC patient-derived colon adenocarcinoma cell line growth inhibition [POLQ]
# Settings: for pIC50: curve of first compound; for viability, T/C: stronger effect = lower value
# Procedure: Multicellular complex tumor spheroid response to Polymerase (POL) inhibitors (novobiocin, ART-558, RP6685) in combination with a variety of drugs and investigational agents in selected tumor cell lines
# The POL inhibitors (novobiocin, ART-558, and RP6685) were evaluated both individually and in combination with standard of care and investigational anticancer small molecules within a complex spheroid model of solid tumors. . Complex spheroids include a stromal component modeled by human endothelial cells (HUVEC) and fibroblasts modeled by human mesenchymal stem cells (MSCs). The concentration ranges selected for each drug and investigational agent were based upon clinically achievable concentrations if the clinical Cmax of the agent was known.
# Compounds. The drugs and investigational agents: novobiocin (NSC847541), ART-558 (NSC835418), RP-6685 (NSC848927), peposertib (NSC802822), ceralasertib (NSC780249), elimusertib (NSC800525), camonsertib (NSC841442), AZD-1390 (NSC803789), olaparib (NSC753686), talazoparib (NSC767125), rucaparib (NSC756644), sotorasib (NSC818433), MRTX-1133 (NSC836407), SN-38 (NSC673596), topotecan (NSC609699), epotoside (NSC141540), doxorubicin (NSC123127), gemcitabine (NSC613327), 5-fluorouracil (NSC19893), paclitaxel (NSC125973), vemurafenib (NSC761431), MSA-2 (NSC828583), SN-011 (NSC837082), adavosertib (NSC754352), prexasertib (NSC758257), carboplatin (NSC241240) and oxaliplatin (NSC266046), were obtained from the National Cancer Institute (NCI) Developmental Therapeutics Program Chemical Repository (21). The FDA-approved anticancer drug set is available from the Developmental Therapeutics Program at https://dtp.cancer.gov/organization/dscb/obtaining/. […] The stock solutions were prepared in dimethyl sulfoxide (DMSO, Sigma-Aldrich, St. Louis, MO, cat. D2650), except for the platinum compounds which were prepared in saline (Quality Biological, Gaithersburg, MD, cat. 114-055-101), at 800-fold the tested concentration and stored at -70 degrees C prior to their use. All drugs and investigational agents were tested over a range starting from a high concentration at or near the clinical Cmax and decreasing in half-log increments. If the clinical Cmax for an agent had not been determined, the highest concentration tested was 10 microM, except for SN-38, which was tested at a high concentration of 1 microM.
# Cell Culture. All cells were maintained in an incubator at 37 degrees C and 5% CO2 with 95% humidity. The PDC lines were cultured according to standard operating procedures established by the NCI PDMR (https://pdmr.cancer.gov). Table 3 of the manuscript, lists the cell lines along with the number of the three cell types plated to form the mct-spheroids and media for tumor cell growth. After thawing, all PDC lines, except 997537-175-T-J1-PDC and 415267-285-R-J2-PDC, were cultured in Matrigel-coated flasks prepared with a working solution of 1X Ham's F-12 nutrient mix, without supplementation (Thermo Fisher Scientific, cat. 11765054), 100 U/mL penicillin-streptomycin (Thermo Fisher Scientific, cat. 15140122), and 2.5% Matrigel (Corning Inc., Corning, NY, cat. 354248) for the first three passages. The two PDC lines 997537-175-T-J1-PDC and 415267-285-R-J2-PDC were cultured on uncoated flasks. The 857933-349-R-J2-PDC line was cultured in 6C/Colon 1B media containing advanced DMEM/F-12 (Thermo Fisher Scientific, cat. 12634028), 10 mM HEPES (Thermo Fisher Scientific, cat. 15630080), 1X GlutaMAX supplement (Thermo Fisher Scientific, cat. 35050061), 0.1 mg/mL primocin (InvivoGen, San Diego, CA, cat. ant-pm-2), 10% defined fetal bovine serum, heat inactivated (HyClone Laboratories Inc., Logan, UT, cat. SH30070.03HI), 50% L-WRN conditioned media (ATCC, cat. CRL-3276), 1.25 mM N-Acetyl-L-cysteine (Sigma-Aldrich, cat. A9165), 10 mM nicotinamide (Sigma-Aldrich, cat. N0636), 1X B-27 supplement (Thermo Fisher Scientific, cat. 17504044), 1X N-2 supplement (Thermo Fisher Scientific, cat. […]
# [1] = second compound 0.0316 µM, first compound 0.0316 µM
# [2] = second compound 0.0316 µM, first compound 0.1 µM
# [3] = second compound 0.0316 µM, first compound 0.316 µM
# [4] = second compound 0.0316 µM, first compound 1 µM
# [5] = second compound 0.0316 µM, first compound 3.16 µM
# [6] = second compound 0.0316 µM, first compound 10 µM
# [7] = second compound 0.1 µM, first compound 0.0316 µM
# [8] = second compound 0.1 µM, first compound 0.1 µM
# [9] = second compound 0.1 µM, first compound 0.316 µM
# [10] = second compound 0.1 µM, first compound 1 µM
# [11] = second compound 0.1 µM, first compound 3.16 µM
# [12] = second compound 0.1 µM, first compound 10 µM
# [13] = second compound 0.316 µM, first compound 0.0316 µM
# [14] = second compound 0.316 µM, first compound 0.1 µM
# [15] = second compound 0.316 µM, first compound 0.316 µM
# [16] = second compound 0.316 µM, first compound 1 µM
# [17] = second compound 0.316 µM, first compound 3.16 µM
# [18] = second compound 0.316 µM, first compound 10 µM
# [19] = second compound 1 µM, first compound 0.0316 µM
# [20] = second compound 1 µM, first compound 0.1 µM
# [21] = second compound 1 µM, first compound 0.316 µM
# [22] = second compound 1 µM, first compound 1 µM
# [23] = second compound 1 µM, first compound 3.16 µM
# [24] = second compound 1 µM, first compound 10 µM
# [25] = second compound 3.16 µM, first compound 0.0316 µM
# [26] = second compound 3.16 µM, first compound 0.1 µM
# [27] = second compound 3.16 µM, first compound 0.316 µM
# [28] = second compound 3.16 µM, first compound 1 µM
# [29] = second compound 3.16 µM, first compound 3.16 µM
# [30] = second compound 3.16 µM, first compound 10 µM
# [31] = second compound 10 µM, first compound 0.0316 µM
# [32] = second compound 10 µM, first compound 0.1 µM
# [33] = second compound 10 µM, first compound 0.316 µM
# [34] = second compound 10 µM, first compound 1 µM
# [35] = second compound 10 µM, first compound 3.16 µM
# [36] = second compound 10 µM, first compound 10 µM
# 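Also: spheroids exposed to drugs for seven days before reading.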
# 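For viability, T/C in this document: 100% = DMSO vehicle control viability in luminescence.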
structure (smiles),measurement,setting,value
C#Cc1c(F)ccc2cc(O)cc(-c3ncc4c(N5CC6CCC(C5)N6)nc(OCC56CCCN5CC(F)C6)nc4c3F)c12 (centres undefined) + COC1C(OC(N)=O)C(O)C(Oc2ccc3c(O)c(NC(=O)c4ccc(O)c(CC=C(C)C)c4)c(=O)oc3c2C)OC1(C)C,pIC50,second compound 0.0316 µM,< 5.00
same,pIC50,second compound 0.1 µM,< 5.00
same,pIC50,second compound 0.316 µM,< 5.00
same,pIC50,second compound 1 µM,< 5.00
same,pIC50,second compound 3.16 µM,< 5.00
same,pIC50,second compound 10 µM,< 5.00
same,"viability, T/C",[1],97.7%
same,"viability, T/C",[2],78.8%
same,"viability, T/C",[3],81.6%
same,"viability, T/C",[4],76.1%
same,"viability, T/C",[5],73.4%
same,"viability, T/C",[6],68%
same,"viability, T/C",[7],98%
same,"viability, T/C",[8],83.9%
same,"viability, T/C",[9],86.5%
same,"viability, T/C",[10],73.3%
same,"viability, T/C",[11],70.2%
same,"viability, T/C",[12],72.1%
same,"viability, T/C",[13],98.7%
same,"viability, T/C",[14],88.4%
same,"viability, T/C",[15],82.9%
same,"viability, T/C",[16],77.5%
same,"viability, T/C",[17],78.9%
same,"viability, T/C",[18],72.1%
same,"viability, T/C",[19],94.8%
same,"viability, T/C",[20],86.7%
same,"viability, T/C",[21],80.1%
same,"viability, T/C",[22],76.8%
same,"viability, T/C",[23],73.2%
same,"viability, T/C",[24],70.7%
same,"viability, T/C",[25],95.1%
same,"viability, T/C",[26],90.2%
same,"viability, T/C",[27],82.3%
same,"viability, T/C",[28],73.2%
same,"viability, T/C",[29],75.9%
same,"viability, T/C",[30],71.7%
same,"viability, T/C",[31],95.2%
same,"viability, T/C",[32],84.1%
same,"viability, T/C",[33],79.6%
same,"viability, T/C",[34],78.7%
same,"viability, T/C",[35],74%
same,"viability, T/C",[36],62.8%
CC1COCCN1c1cc(-c2ccnn2C)c2ccnc(-c3ccn[nH]3)c2n1 (centres undefined) + COC1C(OC(N)=O)C(O)C(Oc2ccc3c(O)c(NC(=O)c4ccc(O)c(CC=C(C)C)c4)c(=O)oc3c2C)OC1(C)C,pIC50,second compound 0.0316 µM,6.61
same,pIC50,second compound 0.1 µM,6.52
same,pIC50,second compound 0.316 µM,6.41
same,pIC50,second compound 1 µM,6.52
same,pIC50,second compound 3.16 µM,6.52
same,pIC50,second compound 10 µM,6.53
same,"viability, T/C",[1],92.7%
same,"viability, T/C",[2],70.6%
same,"viability, T/C",[3],45.5%
same,"viability, T/C",[4],34.8%
same,"viability, T/C",[5],38.4%
same,"viability, T/C",[6],45%
same,"viability, T/C",[7],103%
same,"viability, T/C",[8],80.9%
same,"viability, T/C",[9],50.3%
same,"viability, T/C",[10],35.9%
same,"viability, T/C",[11],36.9%
same,"viability, T/C",[12],45.9%
same,"viability, T/C",[13],93.4%
same,"viability, T/C",[14],84.1%
same,"viability, T/C",[15],52.8%
same,"viability, T/C",[16],35.4%
same,"viability, T/C",[17],39.1%
same,"viability, T/C",[18],47.6%
same,"viability, T/C",[19],101%
same,"viability, T/C",[20],87.6%
same,"viability, T/C",[21],49.5%
same,"viability, T/C",[22],33.8%
same,"viability, T/C",[23],33.6%
same,"viability, T/C",[24],47.2%
same,"viability, T/C",[25],98.6%
same,"viability, T/C",[26],86.1%
same,"viability, T/C",[27],49.5%
same,"viability, T/C",[28],34.6%
same,"viability, T/C",[29],43.1%
same,"viability, T/C",[30],48.3%
same,"viability, T/C",[31],103%
same,"viability, T/C",[32],77.6%
same,"viability, T/C",[33],50.2%
same,"viability, T/C",[34],32.3%
same,"viability, T/C",[35],44.9%
same,"viability, T/C",[36],46.8%
